Test results: patent US20110060000A1, “ACRIDINE ANALOGS IN THE TREATMENT OF GLIOMAS” (priority 2009, published 2011)

What was measured:
C6 = assay: TUNEL labeling in C6; assay type: cell-based, rat; details: C6, 24 hours
Procedure: C6 were plated on glass coverslips. Cells were fixed and stained accordingly to manufacturer instructions. Propidium staining of the nuclei was replaced by Hoechst included in the mounting media. Several images were acquired with a high resolution camera on a microscope equipped with a 10× long working distance dry lens and analyzed with powerful commercial software. Results were expressed in the graph as green labeled pixel counts. The images from the top to the bottom are respectively from N.T., DMSO, Thap 20 nM, Thap 200 nM, STS100 nM. The blue images reflect nuclear staining while the images on the right represent BRDU staining.
Thereafter, cells were harvested and protein extracted. Procaspase 12 band at 65 kDa was identified. In some of the treatments, the active product at 45 kDa was also detected. […] Conversely, in C6, higher GRP78 levels and the cell environment reflect significant caspase activation. […] Caspase activation in ERSR conditions was also confirmed with a TUNEL based apoptosis detection system in C6. […] High resolution images of the experiments were acquired and image morphometric analysis was performed to determine quantitative parameters of the staining as previously described (Pascale et al., 2004, “Translocation of protein kinase C-betaII in astrocytes requires organized actin cytoskeleton and is not accompanied by synchronous RACK1 relocation.” Glia 46(2): 169-82). […]

glioma cells = assay: Gliotoxicity, cell line not stated; assay type: cell-based
From the text: Spiperone is a selective D2 dopamine receptor antagonist. This drug is used in the treatment of schizophrenia and other hallucinatory states. […] In an effort to develop Structure-Activity Relationships around the chosen compounds, a search of commercially available compounds that are either close structural analogs of these lead compounds (for example, acridine and quinoline analogs of quinacrine) or are related to these in terms of their pharmacological activity (dopamine receptor antagonists related to spiperone) was performed.

[1] = system: subcutaneous U87-MG gliomas; assay: Mice bearing subcutaneous U87-MG gliomas; assay type: in vivo
From the text: The estimated survival prolongment is 14 days in mice life which compares at 851 days in human life based on a life expectancy of 18 months in mice and 90 years in human. Also, since one animal was tumor-free at the end of the treatment that translates in an expected 16% cure rate.
FIG. 29a graphs % tumor weight/control as a function of days after implantation. […] Such a profile indicates effectiveness in vivo for both treatment and for prevention of relapse. FIG. 29b graphs % animal survival as a function of days after implantation. […] Such a profile indicates effectiveness in vivo for both treatment and for prevention of relapse.
Mice bearing subcutaneous gliomas were received daily oral administration of 200 mg/kg of quinacrine. […] In FIG. 29 is shown the effect of 100 mg/kg of quinacrine and 10 mg/kg 9-aminoacridine in Mice bearing subcutaneous U87-MG gliomas.

[2] = system: U87-MG skin xenograft tumor explants; assay: U87-MG skin xenograft tumor explants, ERSR markers; assay type: in vivo, mice; details: samples after 7 and 21 days
From the text: U7 represents vehicle treated sample after 7 days. U21 represents vehicle treated sample after 21 days. Q7 represents quinacridine-treated sample after 7 days. Q21 represents quinacridine-treated sample after 21 days. 9AA-7 represents 9-aminoacridine-treated sample after 7 days. 9AA-21 represents 9-aminoacridine-treated sample after 21 days.

p53 = details: cited from earlier work
DNA = details: cited from earlier work
[3] = 200 mg/kg daily oral for 14 days
[4] = full dose over about 45 days, Q oral, 9-AA I.P.
[5] = half dose (maintenance dose) up to about 60 days

C/C=C(/C)C(=O)O[C@H]1C(C)=C2[C@H]([C@@H]1OC(=O)CCCCCCC)[C@@](C)(OC(C)=O)C[C@H](OC(=O)CCC)[C@@]1(O)[C@H]2OC(=O)[C@@]1(C)O [THAP, thapsigargin]
TUNEL labeling (C6): clear increase of TUNEL labeling

CCN(CC)CCCC(C)Nc1c2ccc(Cl)cc2nc2ccc(OC)cc12 (stereo not drawn) [quinacrine]
cytotoxicity in human cells versus rat cells (glioma cells): higher cytotoxicity in human cells than in rat cells | gliotoxicity (glioma cells; cell line not stated): by far the most effective gliotoxic compound | antiglioma action ([1]; 100 mg/kg of quinacrine and 10 mg/kg 9-aminoacridine): powerful antiglioma action | delay in tumor growth ([1]; 200 mg/kg daily oral): 14 days | tumor growth after withdrawal of treatment versus controls ([1]; 200 mg/kg daily oral): significant reduction in tumor growth than controls | estimated survival prolongment in mice life [1, 3]: 14 days | tumor in one of the treated animals [1, 3]: disappearance of the tumor | tumor size in treated animals [1, 3]: tumors decrease in size | effect on tumor growth ([1]; 200 mg/kg daily oral, at 11 days): already significant | inhibition of tumor growth ([1]; 200 mg/kg daily oral, at 21 days): 6-7 folds | animal survival rate compared to control [1, 4]: increased survival rate | tumor size compared to control [1, 4]: decrease in tumor size | animal survival rate compared to control [1, 5]: survival rate was high | tumor size compared to control [1, 5]: tumor size remained relatively constant | delay / survival prolongment translated to human life ([1]; life expectancy 18 months in mice, 90 years in human): 851 days | cure rate ([1]; quinacrine 200 mg/kg daily oral, one animal tumor-free): 16% | ERSR activation and GRP78 target protein in tumor explants [2]: activaiton of ERSR and changes in GRP78 target protein | caspase 12 activation in tumor explants [2]: activation of caspase 12 is evident | p53 activation and p53-dependent killing of tumor cell types (p53): capable of p53 activation and p53-dependent killing | DNA damaging activity (DNA): not found to show DNA damaging activity
